Test results as given in patent US20250145589A1, “PYRIDINE DERIVATIVE AND USE THEREOF” (SICHUAN HUIYU PHARMACEUTICAL CO., LTD., priority 2021, published 2025).
Where two headings read alike, the source gives them in different places. Each block holds one molecule with its values, some of them ahead of it.

Assays:
PI3Kα = PI3Kα (Homo sapiens (Human), UniProt P42336); test: Inhibition of PI3Kα efficacy assay (ADP-Glo kinase assay); type: biochemical; settings: read-out: PI3Kα inhibitory activity (IC50)
Chain of PI3Kα (P42336 whole entry): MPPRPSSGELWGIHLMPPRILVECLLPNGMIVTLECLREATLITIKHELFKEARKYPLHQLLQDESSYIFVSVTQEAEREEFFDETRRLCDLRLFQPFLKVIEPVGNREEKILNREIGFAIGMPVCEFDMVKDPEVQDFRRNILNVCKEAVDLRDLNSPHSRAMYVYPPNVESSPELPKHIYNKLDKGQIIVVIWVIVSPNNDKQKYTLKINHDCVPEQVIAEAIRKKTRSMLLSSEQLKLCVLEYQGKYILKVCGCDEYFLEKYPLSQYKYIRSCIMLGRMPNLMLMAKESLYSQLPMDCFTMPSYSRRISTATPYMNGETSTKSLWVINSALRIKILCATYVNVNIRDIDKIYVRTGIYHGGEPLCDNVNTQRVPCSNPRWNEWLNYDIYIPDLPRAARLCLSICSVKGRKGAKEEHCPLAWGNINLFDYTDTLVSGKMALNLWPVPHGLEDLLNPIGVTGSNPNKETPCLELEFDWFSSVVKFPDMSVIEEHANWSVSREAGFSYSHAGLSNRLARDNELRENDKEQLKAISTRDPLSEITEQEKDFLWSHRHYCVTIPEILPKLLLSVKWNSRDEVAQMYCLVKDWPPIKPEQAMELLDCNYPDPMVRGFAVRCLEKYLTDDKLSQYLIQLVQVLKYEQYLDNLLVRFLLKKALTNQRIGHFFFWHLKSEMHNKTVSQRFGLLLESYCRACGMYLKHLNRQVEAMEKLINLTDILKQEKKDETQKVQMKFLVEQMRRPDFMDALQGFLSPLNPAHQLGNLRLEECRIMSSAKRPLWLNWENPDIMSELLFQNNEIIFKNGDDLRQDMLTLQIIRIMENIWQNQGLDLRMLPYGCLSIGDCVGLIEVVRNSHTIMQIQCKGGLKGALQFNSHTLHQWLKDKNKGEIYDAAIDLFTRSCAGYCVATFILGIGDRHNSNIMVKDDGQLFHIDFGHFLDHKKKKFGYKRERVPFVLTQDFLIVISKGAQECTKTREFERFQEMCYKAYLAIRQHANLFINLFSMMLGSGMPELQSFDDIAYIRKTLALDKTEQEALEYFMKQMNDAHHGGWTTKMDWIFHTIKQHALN
Chain of PI3Kα (P27986 whole entry partner): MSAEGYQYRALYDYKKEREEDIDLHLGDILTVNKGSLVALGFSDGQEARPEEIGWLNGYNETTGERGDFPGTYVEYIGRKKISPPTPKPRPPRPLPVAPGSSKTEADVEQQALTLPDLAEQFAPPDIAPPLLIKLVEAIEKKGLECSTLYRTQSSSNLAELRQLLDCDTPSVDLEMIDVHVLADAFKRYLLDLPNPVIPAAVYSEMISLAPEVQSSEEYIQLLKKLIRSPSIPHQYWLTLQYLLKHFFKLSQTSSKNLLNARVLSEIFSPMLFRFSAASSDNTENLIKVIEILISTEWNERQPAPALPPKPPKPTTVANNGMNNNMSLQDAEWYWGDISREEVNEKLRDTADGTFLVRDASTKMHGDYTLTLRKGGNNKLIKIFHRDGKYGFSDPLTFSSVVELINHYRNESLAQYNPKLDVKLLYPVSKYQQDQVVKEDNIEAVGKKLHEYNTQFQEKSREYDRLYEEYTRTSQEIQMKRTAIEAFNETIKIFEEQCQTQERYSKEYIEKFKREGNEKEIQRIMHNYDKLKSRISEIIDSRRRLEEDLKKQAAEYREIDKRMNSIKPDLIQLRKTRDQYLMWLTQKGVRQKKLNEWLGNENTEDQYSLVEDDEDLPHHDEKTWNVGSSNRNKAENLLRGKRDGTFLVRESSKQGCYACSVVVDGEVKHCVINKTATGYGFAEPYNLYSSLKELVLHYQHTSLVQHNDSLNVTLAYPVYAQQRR
Outline: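 ADP-Glo luminescent detection of ADP from PI3Kα acting on PI substrate with ATP, 60 min at RT; compounds in 8-point five-fold serial dilution from 2 mM DMSO stock. IC50 from four-parameter variable-slope fit.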

[1] = system: MIA PaCa-2-AMGR drug-resistant cell line; test: MIA PaCa-2-AMGR drug-resistant cell proliferation inhibitory activity test; type: cell-based; settings: 72 h, MIA PaCa-2-AMGR drug-resistant cells, 3 days incubation, CellTiter-Glo
Outline: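 MIA PaCa-2 line made resistant by stepwise AMG510 exposure up to 1 μM. Cells seeded at 4×10^3/well overnight, then treated with 8 concentrations (5-fold dilutions) for 3 days at 37° C, 5% CO2 in DMEM with 10% FBS + 2.5% horse serum. Viability by CellTiter-Glo luminescence; IC50 versus no-inhibitor control.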

SMILES: COc1ncc(-c2ccc3ncnc(C4CCN(C(=O)/C=C/C(C)=O)CC4)c3n2)cc1NS(=O)(=O)c1ccc(F)cc1F [Example 234, (E)-2,4-difluoro-N-(2-methoxy-5-(4-(1-(4-oxopent-2-enoyl)piperidin-4-yl)pyrido[3,2-d]pyrimidin-6-yl)pyridin-3-yl)benzenesulfonamide]
IC50 (PI3Kα; Table 4): 4.2 nM
IC50 [1]: 5.3 nM

IC50 (PI3Kα; Table 4): 7 nM
IC50 [1]: 183 nM
SMILES: COc1ncc(-c2ccc3ncnc(N4CCN(C(=O)/C=C/C(C)=O)CC4)c3c2)cc1NS(C)(=O)=O [Example 170, (E)-N-(2-methoxy-5-(4-(4-(4-oxopent-2-enoyl)piperazin-1-yl)quinazolin-6-yl)pyridin-3-yl)methane-sulfonamide]

SMILES: COc1ncc(-c2ccc3ncnc(N4CCN(C(=O)/C=C/C(C)=O)CC4)c3n2)cc1NS(=O)(=O)c1c(Cl)cncc1Cl [Example 224, (E)-3,5-dichloro-N-(2-methoxy-5-(4-(4-(4-oxopent-2-enoyl)piperazin-1-yl)pyrido[3,2-d]pyrimidin-6-yl)pyridin-3-yl) pyridine-4-sulfonamide]
IC50 (PI3Kα; Table 4): 1.1 nM
IC50 [1]: 144 nM

IC50 (PI3Kα; Table 1): 1.4 nM
IC50 [1]: 222 nM
SMILES: C=CC(=O)N1CCN(c2ncnc3ccc(-c4cnc(OC)c(NS(=O)(=O)c5ccc(F)cc5F)c4)cc23)[C@@H](C)C1 [Example 7, (S)—N-(5-(4-(4-acryloyl-2-methylpiperazin-1-yl)quinazolin-6-yl)-2-methoxypyridin-3-yl)-2,4-difluorobenzenesulfonamide]

SMILES: COc1ncc(-c2ccc3ncnc(C4=CCN(C(=O)/C=C/C(C)=O)CC4)c3c2)cc1NS(=O)(=O)c1ccccc1F [Example 200, (E)-2-fluoro-N-(2-methoxy-5-(4-(1-(4-oxopent-2-enoyl)-1,2,3,6-tetrahydropyridin-4-yl)quinazolin-6-yl)pyridin-3-yl)benzene-sulfonamide]
IC50 (PI3Kα; Table 4): 2.3 nM
IC50 [1]: 4.3 nM

SMILES: COc1ncc(-c2ccc3ncnc(N4CCN(C(=O)/C=C/C(C)=O)CC4)c3n2)cc1NS(=O)(=O)c1c(F)cccc1Cl [Example 225, (E)-2-chloro-6-fluoro-N-(2-methoxy-5-(4-(4-(4-oxopent-2-enoyl)piperazin-1-yl)pyrido[3,2-d]pyrimidin-6-yl)pyridin-3-yl) benzene-sulfonamide]
IC50 (PI3Kα; Table 4): 0.5 nM
IC50 [1]: 26 nM

SMILES: CCOc1ncc(-c2ccc3ncnc(N4CCN(C(=O)/C=C/C(C)=O)CC4)c3c2)cc1NS(=O)(=O)c1ccc(F)cc1F [Example 109, (E)-N-(2-ethoxy-5-(4-(4-(4-oxopent-2-enoyl)piperazin-1-yl)quinazolin-6-yl)pyridin-3-yl)-2,4-difluorobenzenesulfonamide]
IC50 (PI3Kα; Table 2): 3.5 nM
IC50 [1]: 111 nM

SMILES: COc1ncc(-c2ccc3ncnc(N4CCN(C(=O)/C=C/C(C)=O)CC4)c3n2)cc1NS(=O)(=O)c1c(F)cncc1F [Example 210, (E)-3,5-difluoro-N-(2-methoxy-5-(4-(4-(4-oxopent-2-enoyl)piperazin-1-yl)pyrido[3,2-d]pyrimidin-6-yl)pyridin-3-yl)pyridine-4-sulfonamide]
IC50 (PI3Kα; Table 4): 0.54 nM
IC50 [1]: 97.4 nM

SMILES: COc1ncc(-c2ccc3ncnc(C4CCN(C(=O)/C=C/C(C)=O)CC4)c3n2)cc1NS(=O)(=O)c1c(F)cc(F)cc1F [Example 231, (E)-2,4,6-trifluoro-N-(2-methoxy-5-(4-(1-(4-oxopent-2-enoyl)piperidin-4-yl)pyrido[3,2-d]pyrimidin-6-yl)pyridin-3-yl)benzenesulfonamide]
IC50 (PI3Kα; Table 4): 3.6 nM
IC50 [1]: 3.6 nM

SMILES: COc1ncc(-c2ccc3ncnc(N4CCN(C(=O)/C=C/C(C)=O)CC4)c3c2)cc1NS(=O)(=O)c1ncc(Cl)s1 [Example 165, (E)-5-chloro-N-(2-methoxy-5-(4-(4-(4-oxopent-2-enoyl)piperazin-1-yl)quinazolin-6-yl)pyridin-3-yl)thiazole-2-sulfonamide]
IC50 (PI3Kα; Table 4): 1.2 nM
IC50 [1]: 173 nM

SMILES: COc1ncc(-c2ccc3ncnc(N4CCN(C(=O)/C=C/C(C)=O)CC4)c3n2)cc1NS(=O)(=O)c1c(F)cccc1F [Example 131, (E)-2,6-difluoro-N-(2-methoxy-5-(4-(4-(4-oxopent-2-enoyl)piperazin-1-yl)pyrido[3,2-d]pyrimidin-6-yl)pyridin-3-yl)benzenesulfonamide]
IC50 (PI3Kα; Table 3): 1.6 nM
IC50 [1]: 29.6 nM

SMILES: COc1ncc(-c2ccc3ncnc(N4CCN(C5CN(C(=O)/C=C/C(C)=O)C5)CC4)c3c2)cc1NS(=O)(=O)c1ccc(F)cc1F [Example 56, (E)-2,4-difluoro-N-(2-methoxy-5-(4-(4-(1-(4-oxopent-2-enoyl)azetidin-3-yl)piperazin-1-yl)quinazolin-6-yl)pyridin-3-yl)benzenesulfon-amide]
IC50 (PI3Kα; Table 2): 4.4 nM
IC50 [1]: 116 nM

SMILES: COc1ncc(-c2ccc3ncnc(N4C5CCC4CN(C(=O)/C=C/C(C)=O)C5)c3c2)cc1NS(=O)(=O)c1ccc(F)cc1F [Example 144, 2,4-difluoro-N-(2-methoxy-5-(4-(3-((E)-4-oxopent-2-enoyl)-3,8-diazabicyclo[3.2.1]octan-8-yl)quinazolin-6-yl)pyridin-3-yl)benzenesulfonamide]
IC50 (PI3Kα; Table 4): 3.2 nM
IC50 [1]: 56.6 nM

SMILES: COc1ncc(-c2ccc3ncnc(N4CCN(C(=O)/C=C/C(C)=O)CC4)c3c2)cc1NS(=O)(=O)c1c(F)cc(F)cc1F [Example 99, (E)-2,4,6-trifluoro-N-(2-methoxy-5-(4-(4-(4-oxopent-2-enoyl)piperazin-1-yl)quinazolin-6-yl)pyridin-3-yl)benzenesulfonamide]
IC50 (PI3Kα; Table 2): 6 nM
IC50 [1]: 72.9 nM

SMILES: COc1ncc(-c2ccc3ncnc(N4CCC5(CC4)CN(C(=O)/C=C/C(C)=O)C5)c3c2)cc1NS(=O)(=O)c1ccc(F)cc1Cl [Example 171, (E)-2-chloro-4-fluoro-N-(2-methoxy-5-(4-(2-(4-oxopent-2-enoyl)-2,7-diazaspiro[3.5]nonan-7-yl)quinazolin-6-yl)pyridin-3-yl)benzene-sulfonamide]
IC50 (PI3Kα; Table 4): 12.9 nM
IC50 [1]: 32.9 nM

SMILES: COc1ncc(-c2ccc3ncnc(N4CCN(C(=O)/C=C/C(C)=O)CC4)c3n2)cc1NS(=O)(=O)c1c(F)cc(F)cc1F [Example 219, (E)-2,4-trifluoro-N-(2-methoxy-5-(4-(4-(4-oxopent-2-enoyl)piperazin-1-yl)pyrido[3,2-d]pyrimidin-6-yl)pyridin-3-yl) benzene-sulfonamide]
IC50 (PI3Kα; Table 4): 0.91 nM
IC50 [1]: 6.4 nM

SMILES: COc1ncc(-c2ccc3ncnc(C4=CCN(C(=O)/C=C/C(C)=O)CC4)c3c2)cc1NS(=O)(=O)c1ccc(F)cc1F [Example 198, (E)-2,4-difluoro-N-(2-methoxy-5-(4-(1-(4-oxopent-2-enoyl)-1,2,3,6-tetrahydropyridin-4-yl)quinazolin-6-yl)pyridin-3-yl)benzenesulfonamide]
IC50 (PI3Kα; Table 4): 1.1 nM
IC50 [1]: 10.7 nM

SMILES: COc1ncc(-c2ccc3ncnc(N4CCC5(CC4)CN(C(=O)/C=C/C(C)=O)C5)c3c2)cc1NS(=O)(=O)c1c(F)cccc1F [Example 49, (E)-2,6-difluoro-N-(2-methoxy-5-(4-(2-(4-oxopent-2-enoyl)-2,7-diazaspiro[3.5]nonan-7-yl)quinazolin-6-yl)pyridin-3-yl) benzenesulfonamide]
IC50 (PI3Kα; Table 2): 2.6 nM
IC50 [1]: 62.4 nM

SMILES: COc1ncc(-c2ccc3ncnc(N4CC5CCC(C4)N5C(=O)/C=C/C(C)=O)c3c2)cc1NS(=O)(=O)c1c(F)cc(F)cc1F [Example 155]
IC50 (PI3Kα; Table 4): 0.3 nM
IC50 [1]: 112 nM

SMILES: COc1ncc(-c2ccc3ncnc(N4CCN(C(=O)/C=C/C(C)=O)CC4)c3c2)cc1NS(=O)(=O)c1c(F)cccc1C#N [Example 122, (E)-2-cyano-6-fluoro-N-(2-methoxy-5-(4-(4-(4-oxopent-2-enoyl)piperazin-1-yl)quinazolin-6-yl)pyridin-3-yl)benzenesulfonamide]
IC50 (PI3Kα; Table 2): 8.1 nM
IC50 [1]: 273 nM

SMILES: COc1ncc(-c2ccc3ncnc(C4=CCN(C(=O)/C=C/C(C)=O)CC4)c3c2)cc1NS(=O)(=O)c1sc(C)nc1C [Example 199, (E)-N-(2-methoxy-5-(4-(1-(4-oxopent-2-enoyl)-1,2,3,6-tetrahydropyridin-4-yl)quinazolin-6-yl)pyridin-3-yl)-2,4-dimethylthiazole-5-sulfonamide]
IC50 (PI3Kα; Table 4): 1.5 nM
IC50 [1]: 19.1 nM

SMILES: COc1ncc(-c2ccc3ncnc(C4CCN(C(=O)/C=C/C(C)=O)CC4)c3n2)cc1NS(=O)(=O)c1ccccc1F [Example 232, (E)-2-fluoro-N-(2-methoxy-5-(4-(1-(4-oxopent-2-enoyl)piperidin-4-yl)pyrido[3,2-d]pyrimidin-6-yl)pyridin-3-yl)benzenesulfonamide]
IC50 (PI3Kα; Table 4): 2 nM
IC50 [1]: 9 nM

SMILES: COc1ncc(-c2ccc3ncnc(C4CCN(C(=O)/C=C/C(C)=O)CC4)c3c2)cc1NS(=O)(=O)c1c(F)cccc1F [Example 205, (E)-2,6-difluoro-N-(2-methoxy-5-(4-(1-(4-oxopent-2-enoyl)piperidin-4-yl)quinazolin-6-yl)pyridin-3-yl) benzenesulfonamide]
IC50 (PI3Kα; Table 4): 1.3 nM
IC50 [1]: 32.9 nM

SMILES: COc1ncc(-c2ccc3ncnc(N4CCN(C(=O)/C=C/C(C)=O)CC4)c3c2)cc1NS(=O)(=O)c1ccccc1C [Example 93, (E)-N-(2-methoxy-5-(4-(4-(4-oxopent-2-enoyl)piperazin-1-yl)quinazolin-6-yl)pyridin-3-yl)-2-methylbenzenesulfonamide]
IC50 (PI3Kα; Table 2): 6 nM
IC50 [1]: 114 nM

SMILES: COc1ncc(-c2ccc3ncnc(N4CCN(C(=O)/C=C/C(C)=O)CC4)c3c2)cc1NS(=O)(=O)c1ccncc1C [Example 172, (E)-N-(2-methoxy-5-(4-(4-(4-oxopent-2-enoyl)piperazin-1-yl)quinazolin-6-yl)pyridin-3-yl)-3-methyl-pyridine-4-sulfonamide]
IC50 (PI3Kα; Table 4): 4.1 nM
IC50 [1]: 256 nM
